From publication PMC7931047, “Discovery of Substituted (2-Aminooxazol-4-yl)Isoxazole-3-carboxylic Acids as Inhibitors of Bacterial Serine Acetyltransferase in the Quest for Novel Potential Antibacterial Adjuvants” (Pharmaceuticals, 2021)
Entries after “also recorded” stand apart in the source; their conditions may differ. Read-outs that look alike come from different tables or passages of the source.

Experiments:
[1] = molecular target: T1, SAT from Salmonella enterica serovar Typhimurium (Salmonella typhimurium, UniProt P29847); test: StSAT enzyme activity assay (spectrophotometric indirect assay with Ellman's reagent); type: biochemical; conditions: for inhibition at 1000 µM: compound at fixed 1 mM, both substrates equal to Km, 5% DMSO
T1 construct: trxA (thioredoxin) fusion; made in house
Method: Since the primary structure of SAT is highly conserved among bacteria, [38] the virtual screening of our in-house library was performed using the available crystal structures of EcSAT (pdb code: 1T3D) and HiSAT (pdb code: 1SSM), setting the experimental parameters as previously reported by us. After this preliminary analysis, a total of 7 compounds were identified and selected to be evaluated on the recombinant enzyme from S. typhimurium. The enzyme used in these assays has a Km,Ser = 1.07 ± 0.15 mM, a Km,AcCoA = 0.17 ± 0.04 mM, kcat = 3813 ± 169 min^−1 [37].
SAT from Salmonella enterica serovar Typhimurium was expressed as trxA fusion protein as previously described and was more than 95% pure based on SDS-PAGE analysis. The enzyme activity was measured by a spectrophotometric indirect assay that exploits the signal at 412 nm generated by 5,5’-Dithiobis(2-nitrobenzoic acid (Ellmn’s reagent) reduction by the reaction product coenzyme A [37]. A total of 5% DMSO was present in all the assays and was proven not to perturb enzyme activity (data not shown). The concentration of substrates was set equal to Km in order to improve the sensitivity of the assay for both competitive and uncompetitive mechanism of inhibition. The dependence of the relative reaction rate on the concentration of compounds was fitted to Equation (1) to calculate the IC50: vi/v0=1/1+[I]/IC50
The inhibition mechanism was determined by fitting the dependence of the initial reaction rate on the concentration of acetyl CoA (at fixed, 1 mM L-Ser concentration) in the presence of different concentrations of inhibitor ( 1/3IC50≥[inhibitor]≤3IC50 ) to the equation for competitive, uncompetitive and non-competitive mechanisms. The equation that fits a competitive mechanism (Equation (2)) was used to calculate Ki for compound 5: v0=Vmax·[acetyl−CoA]/[acetyl−CoA]+(Km·α) where α=1+([comp5]/Ki) .

[2] = test system: M. tuberculosis; design: method as in PMID 28749666; conditions: cited from earlier work
[3] = Chemical stability in DMSO solution by 1H NMR at different time points; type: physicochemical; conditions: 5 mg in 500 μL DMSO-d6, room temperature
Method: Upon noticing changes in the appearance of the DMSO solution over time at room temperature, we deemed it of interest to investigate the chemical stability of the compounds. Therefore, in order to evaluate it, ^1H NMR analysis at different time points (1 h, 2.5 h, and 20 h) of the DMSO solution (5 mg in 500 μL of DMSO-d6) was performed (Supporting Information). Since the time required to observe changes in the colour of the solution was dependent of the substituent at position R2 of series 22, to establish the effect of the substituent on the overall stability of the compound, analogue 22a (R2 = phenyl) which contains the non-substituted phenyl group, analogue 22b (R2 = 3,5-dichlorophenyl), substituted with an EWG and analogue 22d (R2 = 3,5-dimethylphenyl) substituted with an electron donating group (EDG) were selected to perform the chemical stability studies. The stability of the compounds increases in the following order: 22b (stability in DMSO < 2.5 h) < 22a (stability in DMSO < 20 h) < 22d (stability in DMSO < 7 days). Thus, it is possible to conclude that EWGs like the simple phenyl or the phenyl replaced with two chlorines produce fewer stable molecules. On the other hand, the phenyl replaced with EDGs contributes to the overall stability of the molecule. It is hypothesised that the mild oxidative properties of DMSO are able to interfere with the oxazole scaffold, which leads to the opening of the ring and then full degradation of the compound in study.

[4] = test system: S. Typhimurium ATCC14028; test: Minimal Inhibitory Concentration (MIC) assay; type: cell-based
[5] = test system: E. coli ATCC25922; test: Minimal Inhibitory Concentration (MIC) assay; type: cell-based; conditions: Escherichia coli; E. coli ATCC25922, Mueller Hinton broth (MHB)
[6] = test system: StOASS; design: method as in PMID 26894308; conditions: cited from earlier work
[7] = Table 2, analogues of compound 5, * = estimated due to solubility issues, read-out: IC50
[8] = values as quoted in the SAR discussion text, read-out: IC50
[9] = Table 3, synthesised compounds, read-out: StSAT IC50
[10] = StSAT IC50, Table 3, synthesised compounds

T1 sequence (P29847 whole entry, the tested form may be a part): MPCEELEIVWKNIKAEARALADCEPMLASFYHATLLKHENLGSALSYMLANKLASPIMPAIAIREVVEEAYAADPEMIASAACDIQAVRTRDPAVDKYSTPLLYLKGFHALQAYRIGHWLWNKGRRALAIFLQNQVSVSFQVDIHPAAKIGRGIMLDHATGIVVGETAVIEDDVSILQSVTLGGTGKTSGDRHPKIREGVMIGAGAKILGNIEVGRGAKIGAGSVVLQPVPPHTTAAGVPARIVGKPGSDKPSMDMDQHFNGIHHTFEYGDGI

Cc1ccc(C(=O)O)c(N)n1 [Compound 1]
inhibition at 1000 µM [1]: 19.4 ± 1%

O=C(O)C1C2C=CC(C2)C1C(=O)O (centres unmarked) [Compound 2]
inhibition at 1000 µM [1]: 34.9 ± 6%

CC1CN(C(=O)c2cc3ccccc3[nH]2)CC(C)N1 (centres unmarked) [Compound 3]
inhibition at 1000 µM [1]: 31.4 ± 5%

CC(=O)NC(C(=O)O)C(=O)O [Compound 4]
inhibition at 1000 µM [1]: 18.7 ± 6%

Cc1ccc(Nc2nc(-c3cc(C(=O)O)no3)cs2)cc1 [Compound 5]
activity toward M. tuberculosis [2]: inactive
IC50 ([1]; Table 1, virtual screening hits, substrates equal to Km, read-out: IC50): 0.11 mM
Ki ([1]; competitive towards acetyl-CoA, fixed 1 mM L-Ser): 64 ± 12 µM
Mechanism ([1]; inhibition mechanism, varied acetyl CoA at fixed 1 mM L-Ser): competitive inhibitor; also recorded: Competitive with AcCoA

CCn1c2ccccc2c2cc(CNC)ccc21 [Compound 6]
inhibition at 1000 µM [1]: 23.6%

O=C(O)[C@H]1C[C@@H]1c1ccccc1 [Compound 7]
inhibition at 1000 µM [1]: > 40%
IC50 ([1]; virtual screening hit, value printed in mM (μM), read-out: IC50): > 2 mM

Cc1ccc(Nc2nc(-c3ccncc3)cs2)cc1 [Compound 8]
IC50 [1, 7]: > 0.4 mM

COc1ccc(-c2cc(-c3csc(Nc4ccc(C)cc4)n3)on2)cc1 [Compound 9]
IC50 [1, 7]: 0.012 ± 0.002 mM

Cc1ccc(Nc2nc(-c3cc(C(=O)NC45CC6CC(CC(C6)C4)C5)no3)cs2)cc1 [Compound 10]
IC50 [1, 7]: 0.009 ± 0.003 mM

Cc1ccc(Nc2nc(-c3cc(C(N)=O)no3)cs2)cc1 [Compound 11]
IC50 [1, 7]: 0.026 ± 0.004 mM

CNC(=O)c1cc(-c2csc(Nc3ccc(C)cc3)n2)on1 [Compound 12]
IC50 [1, 8]: 0.06 mM

Cc1ccc(Nc2nc(-c3cc(C(=O)Nc4ccccc4)no3)cs2)cc1 [Compound 13]
IC50 [1, 7]: 0.016 ± 0.003 mM
IC50 [1, 8]: 0.0163 mM

CCOC(=O)c1cc(-c2csc(Nc3ccc(C)cc3)n2)on1 [Compound 14]
IC50 [1, 7]: ~0.01 mM
IC50 [1, 8]: 0.01 mM

CCOC(=O)c1cc(-c2csc(Nc3cc(Cl)cc(Cl)c3)n2)on1 [Compound 15]
IC50 [1, 7]: 0.018 ± 0.002 mM

Cc1ccc(Nc2nc(-c3cc(C(=O)O)nn3C)cs2)cc1 [Compound 16]
IC50 [1, 7]: 0.184 ± 0.013 mM

Cn1nc(C(=O)O)cc1-c1csc(Nc2cc(Cl)cc(Cl)c2)n1 [Compound 17]
IC50 [1, 7]: 0.021 ± 0.005 mM

Cc1ccc(Nc2nc(-c3cc(C(=O)O)no3)co2)cc1 [Compound 18]
improvement in the affinity compared to the 2-aminothiazole counterpart ([1]; 18 vs. 5, from IC50): > 40 fold
IC50 [1, 8]: 0.0026 mM

CCOC(=O)c1cc(-c2coc(Nc3ccc(C)cc3)n2)on1 [Compound 19]
IC50 [1, 7]: 0.007 ± 0.002 mM
IC50 [1, 8]: 0.0073 mM

O=C(O)c1cc(-c2csc(Nc3cc(Cl)cc(Cl)c3)n2)on1 [Compound 20]
IC50 [1, 7]: 0.011 ± 0.001 mM

CCOC(=O)c1cc(-c2coc(Nc3ccccc3)n2)on1 [Compound 21a, Ethyl 5-(2-(phenylamino)oxazol-4-yl)isoxazole-3-carboxylate]
IC50 [1, 9]: 0.00268 ± 0.00027 mM

CCOC(=O)c1cc(-c2coc(Nc3cc(Cl)cc(Cl)c3)n2)on1 [Compound 21b, Ethyl 5-(2-((3,5-dichlorophenyl)amino)oxazol-4-yl)isoxazole-3-carboxylate]
IC50 [1, 9]: 0.00252 ± 3e-05 mM

CCOC(=O)c1cc(-c2coc(Nc3ccc(F)cc3)n2)on1 [Compound 21c, Ethyl 5-(2-((4-fluorophenyl)amino)oxazol-4-yl)isoxazole-3-carboxylate]
IC50 [1, 9]: 0.00304 ± 0.00037 mM

CCOC(=O)c1cc(-c2coc(Nc3ccncc3)n2)on1 [Compound 21e, Ethyl 5-(2-(pyridin-4-ylamino)oxazol-4-yl)isoxazole-3-carboxylate]
IC50 [1, 9]: 0.00395 ± 0.00065 mM

O=C(O)c1cc(-c2coc(Nc3ccccc3)n2)on1 [Compound 22a, 5-(2-(phenylamino)oxazol-4-yl)isoxazole-3-carboxylic acid]
stability in DMSO [3]: < 20 h
IC50 [1, 10]: 0.00154 ± 0.00033 mM

O=C(O)c1cc(-c2coc(Nc3cc(Cl)cc(Cl)c3)n2)on1 [Compound 22b, 5-(2-((3,5-dichlorophenyl)amino)oxazol-4-yl)isoxazole-3-carboxylic acid]
stability in DMSO [3]: < 2.5 h
IC50 [1, 10]: 0.00803 ± 0.00018 mM

O=C(O)c1cc(-c2coc(Nc3ccc(F)cc3)n2)on1 [Compound 22c, 5-(2-((4-fluorophenyl)amino)oxazol-4-yl)isoxazole-3-carboxylic acid]
IC50 [1, 9]: 0.00251 ± 0.00034 mM

Cc1cc(C)cc(Nc2nc(-c3cc(C(=O)O)no3)co2)c1 [Compound 22d, 5-(2-((3,5-dimethylphenyl)amino)oxazol-4-yl)isoxazole-3-carboxylic acid]
stability in DMSO [3]: < 170 h
IC50 [1, 9]: 0.00424 ± 0.00011 mM
MIC ([4]; S. Typhimurium ATCC14028, M9 medium deprived of cysteine): > 128 µM
MIC ([4]; Salmonella enterica, S. Typhimurium ATCC14028, Mueller Hinton broth (MHB)): > 128 µM
MIC [5]: > 128 µM

O=C(O)c1cc(-c2coc(Nc3ccncc3)n2)on1 [Compound 22e, 5-(2-(pyridin-4-ylamino)oxazol-4-yl)isoxazole-3-carboxylic acid]
IC50 [1, 9]: 0.012 ± 0.00125 mM

Cc1ccc(CC2(C(=O)O)CC2c2ccccc2)cc1 (centres unmarked) [UPAR415]
mechanism of OASS inhibition [6]: competitive inhibitor
